{"source": "paper PMC12048447", "about": "“PANTAX: a phase Ib clinical trial of the efflux pump inhibitor SCO-101 in combination with gemcitabine and nab-paclitaxel in non-resectable or metastatic pancreatic cancer” (Investigational New Drugs, 2025)", "tested_on": "wild-type PANC-1 cells", "test": "Crystal violet combination assay in wild-type PANC-1 cells", "type": "cell-based, human", "details": "120 h drug incubation", "description": "For the crystal violet assay, cells were seeded into 6-well plates at a density of 40,000 cells/well or into 48-wells with 4000 cells/well. One day after seeding, the cells were experimentally treated. Control conditions consisted of either growth medium (‘untreated’) or DMSO diluted in growth medium. All treatments were performed in triplicates. The cells were then kept in the CO2 incubator at 37 °C until staining with crystal violet dye for 10mins and let to dry overnight. The following day crystal violet dye was dissolved using 20% acetic acid and absorbance was measured at 570 nm.\nExperiments with 4 different concentrations of either SCO-101 or paclitaxel and their combinations were applied to test for synergy among these two compounds in both the PANC-1 parental and -Paclitaxel resistant cells. […] The SRPK1 inhibitor SPHINX31 was tested at 0.1; 0.5; 1 and 5 µM. The SRPK1 inhibitor SRPIN was tested at 1; 5; 10 and 50 µM. Both inhibitors were tested in combination with 5, 10, 15 and 20 nM Paclitaxel.\nA) the resistant PANC-1-Pac and B) the sensitive parental PANC-1 cell lines. Cells were either 1) untreated, 2) incubated with 30µM SCO-101, 3) 40µM SCO-101, 4) 4nM paclitaxel, 5) 30µM SCO-101 + 4nM paclitaxel or 6) 40µM SCO-101 + 4nM paclitaxel. Drug incubation for 120 hours was followed by staining with crystal violet.", "data": [{"smiles": "O=C(Nc1cc(C(F)(F)F)cc(C(F)(F)F)c1)Nc1ccc(Br)cc1-c1nnn[nH]1", "note": "[SCO-101]", "values": [{"measurement": "combination effect of SCO-101 and paclitaxel", "value": "no combination effect"}]}]}
